Results taken from ChEMBL document CHEMBL4507268 (2021).

Assays:
[1] = target: Alpha-2B adrenergic receptor (Homo sapiens) (UniProt P18089); settings: Compound concentration 10.0 uM
[2] = target: Homeodomain-interacting protein kinase 3 (Homo sapiens) (UniProt Q9H422); settings: Compound concentration 1.0 uM
[3] = target: T1, Tyrosine-protein kinase Tec (Homo sapiens) (UniProt P42680); settings: Compound concentration 1.0 uM
T1 sequence (whole entry): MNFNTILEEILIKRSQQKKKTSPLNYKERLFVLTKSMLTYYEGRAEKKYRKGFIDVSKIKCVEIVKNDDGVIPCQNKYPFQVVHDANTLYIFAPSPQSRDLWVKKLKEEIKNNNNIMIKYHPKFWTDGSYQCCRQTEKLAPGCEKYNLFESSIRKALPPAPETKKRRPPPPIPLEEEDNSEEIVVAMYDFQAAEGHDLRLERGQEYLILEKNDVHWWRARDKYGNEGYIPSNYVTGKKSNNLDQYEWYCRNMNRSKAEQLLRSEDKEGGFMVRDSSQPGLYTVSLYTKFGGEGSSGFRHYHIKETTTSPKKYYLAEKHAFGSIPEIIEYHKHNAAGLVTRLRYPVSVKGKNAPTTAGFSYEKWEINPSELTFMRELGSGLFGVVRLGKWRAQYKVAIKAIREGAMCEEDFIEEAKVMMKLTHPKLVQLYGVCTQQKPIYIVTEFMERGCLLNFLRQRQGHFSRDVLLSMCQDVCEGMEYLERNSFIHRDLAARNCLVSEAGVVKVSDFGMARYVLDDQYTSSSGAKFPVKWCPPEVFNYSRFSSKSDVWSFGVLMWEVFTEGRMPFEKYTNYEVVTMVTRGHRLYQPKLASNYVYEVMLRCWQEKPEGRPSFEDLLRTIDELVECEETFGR

[4] = target: T2, Muscle, skeletal receptor tyrosine-protein kinase (Homo sapiens) (UniProt O15146); settings: Compound concentration 1.0 uM
T2 sequence (whole entry): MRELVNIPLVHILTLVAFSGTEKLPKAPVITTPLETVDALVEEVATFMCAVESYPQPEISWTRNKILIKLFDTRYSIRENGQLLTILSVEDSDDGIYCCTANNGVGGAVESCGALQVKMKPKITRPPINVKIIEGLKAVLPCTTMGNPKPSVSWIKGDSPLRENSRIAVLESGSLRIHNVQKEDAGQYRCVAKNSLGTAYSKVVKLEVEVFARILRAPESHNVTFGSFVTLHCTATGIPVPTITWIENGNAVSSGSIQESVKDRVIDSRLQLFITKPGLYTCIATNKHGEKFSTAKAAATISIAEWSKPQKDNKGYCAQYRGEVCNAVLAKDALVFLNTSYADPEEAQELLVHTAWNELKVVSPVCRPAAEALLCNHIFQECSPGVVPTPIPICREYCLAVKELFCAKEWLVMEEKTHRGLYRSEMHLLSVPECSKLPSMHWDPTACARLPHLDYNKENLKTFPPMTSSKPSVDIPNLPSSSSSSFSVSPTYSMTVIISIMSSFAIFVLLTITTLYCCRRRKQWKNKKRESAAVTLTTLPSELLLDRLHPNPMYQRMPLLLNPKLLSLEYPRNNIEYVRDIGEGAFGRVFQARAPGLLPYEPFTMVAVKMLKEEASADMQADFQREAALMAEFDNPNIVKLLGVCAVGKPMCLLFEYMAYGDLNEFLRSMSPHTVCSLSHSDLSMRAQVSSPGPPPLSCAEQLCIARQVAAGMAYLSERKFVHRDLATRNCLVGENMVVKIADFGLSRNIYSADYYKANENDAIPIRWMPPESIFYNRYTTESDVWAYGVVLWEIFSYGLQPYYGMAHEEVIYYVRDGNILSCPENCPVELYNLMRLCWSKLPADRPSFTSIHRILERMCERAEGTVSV

[5] = target: Receptor-interacting serine/threonine-protein kinase 2 (Homo sapiens) (UniProt O43353); settings: Compound concentration 1.0 uM
[6] = target: Casein kinase I isoform delta (Homo sapiens) (UniProt P48730); settings: Compound concentration 1.0 uM
[7] = target: Mitogen-activated protein kinase kinase kinase 10 (Homo sapiens) (UniProt Q02779); settings: Compound concentration 1.0 uM
[8] = target: SRSF protein kinase 2 (Homo sapiens) (UniProt P78362); settings: Compound concentration 1.0 uM
[9] = target: T3, Tyrosine-protein kinase JAK3 (Homo sapiens) (UniProt P52333); settings: Compound concentration 1.0 uM
T3 sequence (whole entry): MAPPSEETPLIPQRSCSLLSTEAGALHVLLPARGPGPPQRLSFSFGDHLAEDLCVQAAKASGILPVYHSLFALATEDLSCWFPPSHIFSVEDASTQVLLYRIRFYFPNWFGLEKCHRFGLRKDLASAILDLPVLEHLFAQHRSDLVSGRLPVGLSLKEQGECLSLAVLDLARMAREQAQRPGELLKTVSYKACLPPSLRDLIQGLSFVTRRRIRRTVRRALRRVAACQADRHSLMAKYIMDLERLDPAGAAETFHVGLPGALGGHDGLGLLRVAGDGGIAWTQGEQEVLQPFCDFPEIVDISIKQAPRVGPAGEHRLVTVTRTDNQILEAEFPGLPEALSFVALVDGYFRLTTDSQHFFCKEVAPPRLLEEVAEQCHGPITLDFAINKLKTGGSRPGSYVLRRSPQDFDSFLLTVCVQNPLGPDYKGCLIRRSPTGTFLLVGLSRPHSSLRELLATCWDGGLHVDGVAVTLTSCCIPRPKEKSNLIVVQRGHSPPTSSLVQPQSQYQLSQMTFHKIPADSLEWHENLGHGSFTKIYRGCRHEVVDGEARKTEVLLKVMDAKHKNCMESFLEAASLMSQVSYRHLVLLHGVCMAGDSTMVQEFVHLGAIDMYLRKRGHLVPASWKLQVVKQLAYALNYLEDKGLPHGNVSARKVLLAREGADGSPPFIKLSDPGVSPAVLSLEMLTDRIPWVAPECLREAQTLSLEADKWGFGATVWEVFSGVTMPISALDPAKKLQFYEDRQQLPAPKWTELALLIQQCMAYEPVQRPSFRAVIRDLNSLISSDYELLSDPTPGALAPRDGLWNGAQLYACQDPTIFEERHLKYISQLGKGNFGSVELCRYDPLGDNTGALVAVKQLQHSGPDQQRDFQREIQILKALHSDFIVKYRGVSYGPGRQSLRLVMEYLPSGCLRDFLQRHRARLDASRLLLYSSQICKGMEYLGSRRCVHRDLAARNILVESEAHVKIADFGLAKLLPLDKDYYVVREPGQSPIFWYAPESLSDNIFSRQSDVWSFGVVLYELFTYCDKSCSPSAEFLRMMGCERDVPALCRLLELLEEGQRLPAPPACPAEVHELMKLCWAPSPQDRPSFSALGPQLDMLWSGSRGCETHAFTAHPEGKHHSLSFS

[10] = target: Tyrosine-protein kinase Srms (Homo sapiens) (UniProt Q9H3Y6); settings: Compound concentration 1.0 uM
Tyrosine-protein kinase Srms (Homo sapiens), sequence (Q9H3Y6 whole entry): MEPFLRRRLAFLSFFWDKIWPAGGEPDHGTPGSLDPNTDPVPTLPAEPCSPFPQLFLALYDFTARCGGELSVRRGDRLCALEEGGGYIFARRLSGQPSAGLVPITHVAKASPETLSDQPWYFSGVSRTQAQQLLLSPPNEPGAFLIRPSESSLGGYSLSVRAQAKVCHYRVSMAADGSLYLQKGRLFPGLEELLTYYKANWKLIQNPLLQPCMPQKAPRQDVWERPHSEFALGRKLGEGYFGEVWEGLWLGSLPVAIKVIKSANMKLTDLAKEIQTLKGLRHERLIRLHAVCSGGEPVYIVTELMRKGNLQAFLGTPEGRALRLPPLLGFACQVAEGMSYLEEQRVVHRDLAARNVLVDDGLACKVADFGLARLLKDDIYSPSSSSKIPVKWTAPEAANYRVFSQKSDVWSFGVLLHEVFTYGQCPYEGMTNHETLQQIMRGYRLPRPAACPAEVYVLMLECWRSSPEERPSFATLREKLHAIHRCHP

Receptor-interacting serine/threonine-protein kinase 2 (Homo sapiens), sequence (O43353 whole entry, canonical isoform): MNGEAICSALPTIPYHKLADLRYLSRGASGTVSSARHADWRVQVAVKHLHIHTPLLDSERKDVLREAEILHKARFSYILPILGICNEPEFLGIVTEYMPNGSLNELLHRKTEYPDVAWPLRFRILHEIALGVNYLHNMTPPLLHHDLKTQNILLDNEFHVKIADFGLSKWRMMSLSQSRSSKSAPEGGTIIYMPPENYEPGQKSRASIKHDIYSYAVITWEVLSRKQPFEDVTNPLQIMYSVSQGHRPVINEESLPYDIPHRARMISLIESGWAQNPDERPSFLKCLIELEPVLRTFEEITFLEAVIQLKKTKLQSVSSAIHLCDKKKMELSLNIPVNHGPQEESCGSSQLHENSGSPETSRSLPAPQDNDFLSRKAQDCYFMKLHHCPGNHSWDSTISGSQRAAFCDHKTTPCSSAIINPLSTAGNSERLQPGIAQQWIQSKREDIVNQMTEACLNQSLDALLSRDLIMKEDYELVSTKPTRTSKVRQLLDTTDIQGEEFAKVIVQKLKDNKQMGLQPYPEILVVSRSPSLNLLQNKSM
SRSF protein kinase 2 (Homo sapiens), sequence (P78362 whole entry, looked up): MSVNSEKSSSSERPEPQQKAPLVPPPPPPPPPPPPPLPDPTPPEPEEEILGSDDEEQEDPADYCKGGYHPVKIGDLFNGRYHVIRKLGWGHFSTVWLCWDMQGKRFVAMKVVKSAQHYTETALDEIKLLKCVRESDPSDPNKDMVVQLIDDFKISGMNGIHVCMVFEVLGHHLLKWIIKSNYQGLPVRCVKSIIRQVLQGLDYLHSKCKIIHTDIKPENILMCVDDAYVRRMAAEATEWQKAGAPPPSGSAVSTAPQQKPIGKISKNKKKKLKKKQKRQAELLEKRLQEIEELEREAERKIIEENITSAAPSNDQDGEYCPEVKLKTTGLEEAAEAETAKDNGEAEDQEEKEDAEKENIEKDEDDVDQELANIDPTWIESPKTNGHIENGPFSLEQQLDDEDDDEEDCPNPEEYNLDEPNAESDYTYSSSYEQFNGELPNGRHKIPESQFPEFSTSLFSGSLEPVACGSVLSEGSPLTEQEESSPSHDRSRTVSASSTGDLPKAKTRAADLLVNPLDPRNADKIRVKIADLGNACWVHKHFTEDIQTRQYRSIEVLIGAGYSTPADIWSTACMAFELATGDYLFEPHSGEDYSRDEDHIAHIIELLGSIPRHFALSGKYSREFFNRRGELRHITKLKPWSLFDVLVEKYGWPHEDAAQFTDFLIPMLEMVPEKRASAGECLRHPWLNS
Mitogen-activated protein kinase kinase kinase 10 (Homo sapiens), sequence (Q02779 whole entry, looked up): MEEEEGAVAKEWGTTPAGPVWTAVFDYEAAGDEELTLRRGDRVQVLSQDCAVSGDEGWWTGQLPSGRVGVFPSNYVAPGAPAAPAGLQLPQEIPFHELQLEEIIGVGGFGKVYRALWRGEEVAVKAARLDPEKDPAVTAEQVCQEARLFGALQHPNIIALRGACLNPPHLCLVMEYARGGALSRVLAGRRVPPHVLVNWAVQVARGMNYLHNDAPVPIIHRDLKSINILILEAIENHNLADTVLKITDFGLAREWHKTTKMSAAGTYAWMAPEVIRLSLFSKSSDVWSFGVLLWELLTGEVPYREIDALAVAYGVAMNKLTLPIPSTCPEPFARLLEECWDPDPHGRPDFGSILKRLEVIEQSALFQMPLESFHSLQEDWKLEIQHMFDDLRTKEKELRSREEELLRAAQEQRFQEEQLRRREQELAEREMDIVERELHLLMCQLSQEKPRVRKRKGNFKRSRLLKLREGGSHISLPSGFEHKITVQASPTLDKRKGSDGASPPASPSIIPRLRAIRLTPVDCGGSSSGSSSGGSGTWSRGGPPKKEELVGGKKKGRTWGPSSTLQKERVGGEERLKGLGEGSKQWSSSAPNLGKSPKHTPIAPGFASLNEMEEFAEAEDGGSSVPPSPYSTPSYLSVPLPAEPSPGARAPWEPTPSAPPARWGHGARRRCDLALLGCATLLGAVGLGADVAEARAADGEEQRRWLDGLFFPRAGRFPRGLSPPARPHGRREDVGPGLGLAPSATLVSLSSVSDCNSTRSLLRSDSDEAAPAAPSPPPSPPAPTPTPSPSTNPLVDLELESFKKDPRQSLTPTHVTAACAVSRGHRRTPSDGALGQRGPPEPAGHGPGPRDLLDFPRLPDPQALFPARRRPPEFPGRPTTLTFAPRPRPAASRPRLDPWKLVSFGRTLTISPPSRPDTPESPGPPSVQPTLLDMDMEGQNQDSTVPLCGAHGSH
Alpha-2B adrenergic receptor (Homo sapiens), sequence (P18089 whole entry): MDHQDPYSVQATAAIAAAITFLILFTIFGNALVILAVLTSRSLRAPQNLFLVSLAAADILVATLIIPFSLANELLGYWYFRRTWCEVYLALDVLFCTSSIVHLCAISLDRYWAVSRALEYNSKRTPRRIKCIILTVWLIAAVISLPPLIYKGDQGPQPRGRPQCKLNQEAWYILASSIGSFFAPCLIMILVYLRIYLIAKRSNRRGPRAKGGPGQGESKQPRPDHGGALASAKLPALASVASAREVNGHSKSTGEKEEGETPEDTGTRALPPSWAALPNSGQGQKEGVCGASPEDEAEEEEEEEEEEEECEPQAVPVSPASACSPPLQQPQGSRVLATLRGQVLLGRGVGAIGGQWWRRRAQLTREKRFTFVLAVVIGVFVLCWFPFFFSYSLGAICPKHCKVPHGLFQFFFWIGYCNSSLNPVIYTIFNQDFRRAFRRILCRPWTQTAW
Casein kinase I isoform delta (Homo sapiens), sequence (P48730 whole entry, looked up, canonical isoform): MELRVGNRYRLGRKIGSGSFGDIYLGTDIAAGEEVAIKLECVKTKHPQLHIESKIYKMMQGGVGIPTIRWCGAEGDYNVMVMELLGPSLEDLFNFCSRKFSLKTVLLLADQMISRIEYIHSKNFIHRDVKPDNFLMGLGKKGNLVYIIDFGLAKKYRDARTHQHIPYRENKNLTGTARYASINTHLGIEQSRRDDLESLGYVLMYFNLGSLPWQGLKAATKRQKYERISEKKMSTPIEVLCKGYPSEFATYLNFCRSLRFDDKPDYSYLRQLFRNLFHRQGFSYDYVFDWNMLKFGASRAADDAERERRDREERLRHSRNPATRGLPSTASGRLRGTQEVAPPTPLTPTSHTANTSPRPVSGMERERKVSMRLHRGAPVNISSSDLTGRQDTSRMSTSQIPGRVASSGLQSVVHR
Homeodomain-interacting protein kinase 3 (Homo sapiens), sequence (Q9H422 whole entry, looked up): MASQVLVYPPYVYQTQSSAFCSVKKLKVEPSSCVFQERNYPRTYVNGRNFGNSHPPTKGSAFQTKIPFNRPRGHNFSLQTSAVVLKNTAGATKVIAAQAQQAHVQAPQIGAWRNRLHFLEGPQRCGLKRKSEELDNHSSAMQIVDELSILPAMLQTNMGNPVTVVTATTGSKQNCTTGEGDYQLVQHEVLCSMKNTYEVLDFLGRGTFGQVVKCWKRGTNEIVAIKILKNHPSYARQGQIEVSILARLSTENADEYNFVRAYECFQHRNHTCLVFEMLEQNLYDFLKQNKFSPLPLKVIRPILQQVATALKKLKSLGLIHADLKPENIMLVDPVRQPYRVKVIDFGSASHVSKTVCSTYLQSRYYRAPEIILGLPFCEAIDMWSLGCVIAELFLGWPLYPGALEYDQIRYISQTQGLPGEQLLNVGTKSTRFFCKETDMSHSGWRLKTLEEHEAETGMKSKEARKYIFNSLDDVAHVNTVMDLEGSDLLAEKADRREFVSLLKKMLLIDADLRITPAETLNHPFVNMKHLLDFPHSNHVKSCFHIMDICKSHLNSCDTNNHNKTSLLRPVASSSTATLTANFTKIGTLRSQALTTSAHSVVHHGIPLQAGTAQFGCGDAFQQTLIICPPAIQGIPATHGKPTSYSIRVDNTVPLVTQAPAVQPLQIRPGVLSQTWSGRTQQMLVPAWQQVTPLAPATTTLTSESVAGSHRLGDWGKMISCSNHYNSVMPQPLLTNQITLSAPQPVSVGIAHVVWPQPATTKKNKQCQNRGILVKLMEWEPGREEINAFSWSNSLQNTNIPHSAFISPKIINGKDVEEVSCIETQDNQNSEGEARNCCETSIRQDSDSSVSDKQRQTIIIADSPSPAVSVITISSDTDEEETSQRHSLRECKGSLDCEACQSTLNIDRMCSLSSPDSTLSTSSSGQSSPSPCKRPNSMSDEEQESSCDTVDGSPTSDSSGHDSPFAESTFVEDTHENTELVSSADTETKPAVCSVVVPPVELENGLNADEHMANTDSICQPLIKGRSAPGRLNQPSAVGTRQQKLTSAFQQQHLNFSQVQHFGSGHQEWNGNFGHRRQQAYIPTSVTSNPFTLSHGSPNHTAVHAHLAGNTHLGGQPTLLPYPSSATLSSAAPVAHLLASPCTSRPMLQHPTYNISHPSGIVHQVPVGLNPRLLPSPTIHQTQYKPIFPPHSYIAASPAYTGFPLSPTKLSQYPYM

CN1CCN(c2cnc3c(C4CCN(C(=O)c5ccc(OC(F)(F)F)cc5N)CC4)ncnc3c2)CC1 [BAY-885]
inactive: inhibition [1] -8.47% | % residual kinase activity [2] 108% | % residual kinase activity [3] 112% | % residual kinase activity [4] 130% | % residual kinase activity [5] 101% | % residual kinase activity [6] 116% | % residual kinase activity [7] 107% | % residual kinase activity [8] 99% | % residual kinase activity [9] 118% | % residual kinase activity [10] 81%
